These results are taken from patent publication US7935711B2, “HIV inhibiting 2-(4-cyanophenylamino) pyrimidine oxide derivatives” (priority 2005, dated 2011).

The structures appear in SMILES notation.

The test system of data set [1] is HIV strain F, mutations K101E and K103N in HIV reverse transcriptase. As to the kind of experiment: Antiviral spectrum, cellular assay, strain F. The conditions noted are these: Human immunodeficiency virus 1, read-out: pEC50 F (converted). Type of data set: cell-based. The protocol:
(§1) Because of the increasing emergence of drug resistant HIV strains, the present compounds were tested for their potency against clinically isolated HIV strains harboring several mutations. These mutations are associated with resistance to reverse transcriptase inhibitors and result in viruses that show various degrees of phenotypic cross-resistance to the currently commercially available drugs such as for instance AZT and delavirdine.
(§2) The antiviral activity of the compound of the present invention is evaluated in the presence of wild type HIV and HIV mutants bearing mutations at the reverse transcriptase gene. The activity of the compounds is evaluated using a cellular assay and the residual activity is expressed in pEC50 values. The columns IIIB and A-G in the table list the pEC50 values against various strains IIIB, A-G.
Strain F contains mutations K101E and K103N in HIV reverse transcriptase.

Data set [2] has as its system HIV strain D, mutation Y188L and S162K in HIV reverse transcriptase. As to the kind of experiment: Antiviral spectrum, cellular assay, strain D. It counts as cell-based. The settings on record: Human immunodeficiency virus 1, read-out: pEC50 D (converted). The procedure: as §1, §2
Strain D contains mutation Y188L and S162K in HIV reverse transcriptase, […]

Data set [3] relates to HIV strain C, mutation L100I in HIV reverse transcriptase. The experiment in a line: Antiviral spectrum, cellular assay, strain C. Type of data set: cell-based. The settings on record: Human immunodeficiency virus 1, read-out: pEC50 C (converted). The procedure: as §1, §2
Strain C contains mutation L100I in HIV reverse transcriptase, […]

The subject of data set [4] is HIV strain B, mutation K103N in HIV reverse transcriptase. As to the kind of experiment: Antiviral spectrum, cellular assay, strain B. Type of data set: cell-based. The conditions noted are these: Human immunodeficiency virus 1, read-out: pEC50 B (converted). The protocol: as §1, §2
Strain B contains mutation K103N in HIV reverse transcriptase, […]

In data set [5] the test system is wild type HIV-LAI strain (IIIB). As to the kind of experiment: Antiviral spectrum, cellular assay, strain IIIB. It counts as cell-based. The conditions noted are these: Human immunodeficiency virus 1. The protocol:
as §1, §2
Strain IIIB is wild type HIV-LAI strain;

In data set [6] the test system is HIV strain A, mutation Y181C in HIV reverse transcriptase. As to the kind of experiment: Antiviral spectrum, cellular assay, strain A. It counts as cell-based. The conditions noted are these: Human immunodeficiency virus 1, read-out: pEC50 A (converted). The procedure:
as §1, §2
Strain A contains mutation Y181C in HIV reverse transcriptase, […]

Data set [7] concerns HIV strain E, mutations L100I and K103N in HIV reverse transcriptase. As to the kind of experiment: Antiviral spectrum, cellular assay, strain E. It counts as cell-based. The settings on record: Human immunodeficiency virus 1, read-out: pEC50 E (converted). The protocol:
as §1, §2
Strain E contains mutations L100I and K103N in HIV reverse transcriptase, […]

Turning to `Cc1cc(C#N)cc(C)c1Oc1nc(Nc2ccc(C#N)cc2)[n+]([O-])c(N)c1Br` [Compound 1], the melting point (in general, the temperature, or range, at which the solid turns liquid) came to 271 °C. Besides, the EC50 in data set [1] is 1.05 nM. In data set [2], the EC50 was 0.603 nM. Further, in data set [3], the EC50 was 0.631 nM. Besides, in data set [4], the EC50 was 1.41 nM. In data set [5], this compound had an EC50 of 0.575 nM. Besides, the EC50 in data set [6] was 0.631 nM. Besides, the EC50 in data set [7] is 1.07 nM.
Regarding `Cc1cc(C#N)cc(C)c1Oc1nc(Nc2ccc(C#N)cc2)nc(N)c1Br` [Compound A, 4-[[6-amino-5-bromo-2-[(4-cyanophenyl)amino]-4-pyrimidinyl]oxy]-3,5-dimethylbenzonitrile, reference compound], the EC50 in data set [1] was 4.57 nM; in data set [2], 2.45 nM; in data set [3] it was 2.88 nM; in data set [4], 1.78 nM; in data set [5], 2.82 nM; in data set [6] it was 10 nM. Also, in data set [7], the EC50 is 8.13 nM.
